# Data: US5141957A, “1,4-bis-(amino-hydroxyalkylamino)-anthraquinones for inhibiting protein kinase C” (Sphinx Pharmaceuticals Corporation, priority 1990, dated 1992)
# Where a name gives a salt, the structure may show the parent alone.
# Experiments:
# CEM cells = experiment: Human tumor cell growth inhibition (3H-thymidine incorporation), CEM; format: cell-based; details: CCRF-CEM, inhibition of 3H-thymidine incorporation, 18-24 hrs + 4 hrs
# Description: (§1) MCF-7 a human breast tumor cell line and MCF-7/ADR an adriamycin resistant line of MCF-7 cells were obtained from the National Cancer Institute, Frederick, Md. CEM cells (ATCC accession number CCL 119) were obtained from the American Type Culture Collection, Rockville, Md. Human tumor cells are trypsinized (0.05% trypsin, GIBCO), counted with a hemacytometer and seeded at a concentration of 10,000 cells/well in a 96 well microtiter plate. After allowing cells to attach to the surface overnight, the culture medium is aspirated and replaced with 100 μl of fresh medium. Test agents are diluted to determine dose response at 2× final concentration and added in quadruplicate at 100 μl/well to bring the total volume of each well to 200 μl . The microtiter plate is then incubated at 37° C. 5% CO2 overnight (18-24 hrs) before ^3 H-thymidine is added at a concentration of 0.5 μCi/well in 50 μl culture medium. The plate is incubated again for 4 hrs under the same conditions as above. Supernatant is then aspirated and 50μl trypsin (0.05%, GIBCO) is added to each well. Cells are checked microscopically to determine detachment from surfaces, and plates are then harvested with a cell harvester (PHD, Cambridge Technology, Inc.) Filter papers corresponding to wells are placed in scintillation vials and counted to determine the amount of ^3 H-thymidine incorporated by the cells. […]
# [1] = system: MCF-7/ADR adriamycin resistant line of MCF-7 cells; experiment: Human tumor cell growth inhibition (3H-thymidine incorporation), MCF-7/ADR; format: cell-based; details: NCI/ADR-RES, inhibition of 3H-thymidine incorporation, 18-24 hrs + 4 hrs
# Description: as §1
# [2] = system: MCF-7 human breast tumor cell line; experiment: Human tumor cell growth inhibition (3H-thymidine incorporation), MCF-7; format: cell-based; details: MCF7, inhibition of 3H-thymidine incorporation, 18-24 hrs + 4 hrs
# Description: as §1
# Protein kinase C (PKC) = experiment: Protein kinase C inhibition (histone H1 phosphorylation, 32P-ATP); format: biochemical; details: histone H1 substrate; enzyme from rat brain; 20 μM ATP; pH 7.5; 10 min
# Description: The protein kinase C (PKC) assay is designed to duplicated the in vivo conditions required for protein kinase C function. Therefore, pH, salt and cofactor concentrations are similar to physiologic levels. Histone Hl (lysine rich) is used in the assay as the phosphorylation acceptor protein because it is readily available and serves as a good substrate for protein kinase C. The enzyme is prepared from rat brain and is purified to apparent homogeneity as determined by a single band on silver stained SDS-polyacrylamide. Studies on the mechanism of regulation of protein kinase C by phospholipids, DAG and Ca^+2 have been hampered by the physical properties of the lipid cofactors. In the screening assay, phosphatidylserine (PS) and DAG are co-sonicated to form unilamellar and multilamellar vesicles. The concentration of lipids in the assay are suboptimal to maximize the detection potential of the assay for inhibitors. Potential inhibitor compounds are added to the assay in dimethylsulfoxide at three concentrations to give final inhibitor concentrations of 4.3, 43 and 218 μM, respectively. The assay is started with the addition of enzyme and stopped after 10 min by the addition of 25 % trichloroacetic acid (TCA) and 1.0 mg/ml bovine serum albumin (BSA). […] The amount of phosphorylation is determined by the radioactivity measured in a scintillation counter. […]
# [3] = system: Proliferating keratinocytes (NHEK cells); experiment: Human keratinocyte inhibition (3H-thymidine incorporation); format: cell-based; details: second passage, inhibition of 3H-thymidine incorporation
# Description: as §1, with “Human” for “MCF-7 a human breast tumor cell line and MCF-7/ADR an adriamycin resistant line of MCF-7 cells were obtained from the National Cancer Institute, Frederick, Md. CEM cells (ATCC accession number CCL 119) were obtained from the American Type Culture Collection, Rockville, Md. Human”, “Supernatant is then aspirated and 50μl trypsin (0.05%, GIBCO) is added to each well.” left out
# Proliferating keratinocytes (NHEK cells purchased from Clonetics, Inc., San Diego, Calif.) in second passage were grown in Keratinocyte Growth Medium (KGM) (Clonetics, Inc.) Cells are trypsinized (0.025% trypsin, Clonetics), counted with a hemacytometer (Scientific Products), and seeded at a concentration of 2,500 cells/well in a 96 well microtiter plate. […]
# [4] = system: PMA-stimulated neutrophils; experiment: Neutrophil superoxide anion (O2-) release assay; format: cell-based; details: Homo sapiens, 0.5 h, 37° C., 30 min, cytochrome c reduction at 550 nm, read-out: IC50, PMA-stimulated O2- production (respiratory burst)
# Description: Neutrophils are isolated form whole blood collected from human volunteers. All reagent materials are obtained from Sigma Chemical Company with the exception of isotonic saline (Travenol Laboratories, Inc., Deerfield, Ill.) and lymphocyte separation medium (Organon Teknika, Durham, N.C.).
# Whole blood is drawn and mixed with sodium heparin (final conc. 10 units/ml) to prevent clotting. An equal volume of dextran (3.0%) in isotonic saline is added, mixed, and allowed to settle for 30 min to bind red blood cells (RBC). Supernatant is removed, underlayered with lymphocyte separation medium and centrifuged for 40 min at 400 ×g in a centrifuge (Beckman GPR, Norcross, Ga.). The pellet is alternately resuspended in 0.2% and 1.6% NaCl to lyse RBCs before washing with Hank's Balanced Salt Solution (HBSS). […]
# The neutrophil cell concentration is adjusted to 2×10^6 cells/ml with HBSS before adding 0.8 ml cells to 12×75 mm polypropylene test tubes (Fisher Scientific). […] Optical density (OD) of cytochrome c is read in a spectrophotometer (Shimadzu) at 550 nm. […] Reducing cytochrome c increases its absorbance, and the change in OD of cytochrome c is proportional to the amount of O2^- produced by PMA stimulation. […] Inhibition is expressed as IC50 μM and is the amount of test compound that will inhibit fifty per cent of the PMA-stimulated respiratory outburst, i.e. O2^- production.
SMILES,IC50 (CEM cells),IC50 [1],IC50 [2],IC50 (Protein kinase C (PKC)),IC50 [3],IC50 [4]
"CCCNCC(O)CNc1ccc(NCC(O)CNCCC)c2c1C(=O)c1ccccc1C2=O (stereo not shown) [Compound 1a, 1,4-Bis-(3-Propylamino-2-Hydroxypropylamino)-9, 10 anthracenedione hydrochloride]",5.6 µM,> 25 µM,2.4 µM,199 µM,,
"O=C1c2ccccc2C(=O)c2c(NCC(O)CNCc3ccccc3)ccc(NCC(O)CNCc3ccccc3)c21 (stereo not shown) [Compound 1b, 1,4-Bis-(3-Benzylamino-2-Hydroxypropylamino)-9, 10 anthracenedione. Hydrochloride salt]",2.7 µM,17 µM,2.7 µM,43 µM,4 µM,3.9 µM
